Data as given in patent US5612337A, “Substituted morpholine derivatives and their use as therapeutic agents” (Merck Sharp & Dohme Limited, priority 1993, dated 1997).

Experiment: stability of crystals of the hydrochloride salt
Assay type: physicochemical
Procedure: Dimethylamine (approximately 10 ml) was condensed at -80° C. in a pressure tube and to this was added a solution of N-(4-azidobut-2-ynyl)-2-(R)-(1-(R)-(3,5-bis(trifluoromethyl) phenyl)ethoxy)-3-(S)-(4-fluorophenyl)morpholine (3.2 g) in dioxan (15 ml). The tube was sealed and the solution was heated at 90° C. for 16 h. The solution was evaporated to dryness and the residue chromatographed on silica gel (eluting with 5% methanol in dichloromethane containing 0.25% ammonia (SG. 0.88)) and the fractions containing the desired product were evaporated in vacuo to give the title compound. To a solution of this residue in diethyl ether was added 1M-HCl in methanol. The solution was evaporated to dryness and redissolved in diethyl ether to give crystals of the title compound hydrochloride salt m.p. 194°-198° C., [α]^22D +65.0° (C=0.5, H2 O).

Measured: stability of crystals

C[C@@H](O[C@H]1OCCN(Cc2nn[nH]c2CN(C)C)[C@H]1c1ccc(F)cc1)c1cc(C(F)(F)F)cc(C(F)(F)F)c1 [Example 12]
stable for at least five days: at 40° C. | at 40° C./75% relative humidity | at 80° C. | at 2000LUX
